The results in this text go back to patent US20230009608A1, “GRK2 INHIBITORS AND USES THEREOF” (Cygnal Therapeutics, Inc., priority 2020, published 2023).

For assay [1], the system named is PAXF1657 control empty vector cell line. Put plainly: 7-day proliferation assay, PAXF1657 control empty vector cell line (Example 9). The format is cell-based. To be noted: 168 h; for GI50: 7-day compound treatment, CellTiter-Glo; for IC50: Cell Line: PAXF1657 empty vector (EV) cell line, 7-day, read-out: C: 7-day proliferation assay: IC50 GeoMean. The method in brief:
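Viability by CellTiter-Glo after 7 days at 37° C., with compound-containing media replaced on day 3. Cells (500/well, RPMI1640 + 10% FBS) were PAXF1657 pairs: GRK2 overexpression vs empty vector, or CRISPR GRK2 knockout vs non-targeting clones; doses 30 μM-0.0002 μM final, 10 points, 0.3% DMSO.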
A general note: In ATP-based viability assays light output follows the ATP content of the culture.

The test system of assay [2] is PAXF1657 cell line stably overexpressing GRK2. Put plainly: 7-day proliferation assay, PAXF1657 stably overexpressing GRK2 (Example 9). Conditions: for GI50: 168 h, 7-day compound treatment, CellTiter-Glo; for Ratio GRK2 overexpressing cells/Empty vector cells: GI50 in GRK2 overexpressing PAXF1657 over GI50 in empty vector PAXF1657. Format: cell-based. The method, then: In order to identify compounds specific for GRK2, we generated two isogenic cell line pairs of the pancreatic cancer cell line PAXF1657, a pair of cells stably overexpressing GRK2 cDNA or the control empty vector and a cell line pair of PAXF1657 GRK2 knockout clonal cells versus non-targeting control clonal cells.
Proliferation Assay: Cellular anti-proliferative activity of compounds was assessed by using the pancreatic cancer cell line, PAXF1657, stably overexpressing GRK2 cDNA or the control empty vector, as well as the parental urinary bladder cancer cell line, 5637. In addition, we also took advantage of GRK2 knockout cell lines that were generated via CRISPR. Cell lines were seeded into tissue culture treated, white-walled, 96-well plates at a density of 500 cells/well in RPMI1640 media supplemented with 10% H.I. FBS and penicillin/streptomycin. Plates were incubated overnight at 37° C., 5% CO2 to allow cells to adhere to the wells. GRK2 inhibitors were added to the cells using a 10-point dilution series with a final concentration ranging from 30 μM-0.0002 μM in 0.3% DMSO. At the time of compound addition, a set of plates, that were not treated with compounds, were collected and cell viability was measured using CellTiter-Glo (Promega). CellTiter-Glo reagent was added to the designed plates and luminescence was measuring using a Biotek Synergy plate reader. The compound treated cells were incubated for 3 days at 37° C., 5% CO2. The media was then aspirated from each well and replaced with fresh media containing GRK2 inhibitors. The compound treated cells were then incubated for an additional 4 days at 37° C., 5% CO2. Cell viability was assessed and at end of the 7-day compound treatment by CellTiterGlo.

Assay [3] concerns the target T1, GRK2 (Homo sapiens, UniProt P25098).
T1 construct: purchased SignalChem A14-10G
T1 sequence (P25098 1-689): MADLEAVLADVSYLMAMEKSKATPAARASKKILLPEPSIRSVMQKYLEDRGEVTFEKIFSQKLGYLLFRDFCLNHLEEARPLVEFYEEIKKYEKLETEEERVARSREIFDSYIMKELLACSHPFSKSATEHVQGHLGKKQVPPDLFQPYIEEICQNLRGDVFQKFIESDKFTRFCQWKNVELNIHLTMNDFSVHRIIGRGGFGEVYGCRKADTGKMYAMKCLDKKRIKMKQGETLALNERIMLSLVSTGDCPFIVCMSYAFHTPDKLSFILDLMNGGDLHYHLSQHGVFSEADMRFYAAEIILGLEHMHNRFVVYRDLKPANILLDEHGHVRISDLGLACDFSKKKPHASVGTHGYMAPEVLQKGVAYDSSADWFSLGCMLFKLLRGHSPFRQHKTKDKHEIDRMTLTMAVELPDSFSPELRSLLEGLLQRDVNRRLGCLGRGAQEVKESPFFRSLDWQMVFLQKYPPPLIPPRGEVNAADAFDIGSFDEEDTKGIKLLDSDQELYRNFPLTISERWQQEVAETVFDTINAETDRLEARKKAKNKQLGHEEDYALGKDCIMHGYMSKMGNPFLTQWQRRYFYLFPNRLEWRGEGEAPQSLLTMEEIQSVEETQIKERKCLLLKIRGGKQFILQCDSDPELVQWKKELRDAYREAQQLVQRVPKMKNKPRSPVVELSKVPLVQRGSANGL
Nature of the assay: ADPGlo GRK2 Inhibition Assay (Example 8). Format: biochemical. The method in brief:
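GRK2 (15 nM 2× enzyme solution) was preincubated 15 min with compound, then reacted 180 min at room temperature with 2× mix of 20 μM ATP plus GRKtide in HEPES pH 7.5, MgCl2, Tween-20, DTT. ADP was detected by ADP-Glo luminescence. Percent inhibition was normalised to enzyme and no-enzyme controls, with dose-response curves from threefold dilutions starting at 100 μM.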
In general terms: In ADP-Glo the light output rises with the ADP produced.

The target in assay [4] is T1, GRK2. Put plainly: GRK2 Inhibition Assay (TR-FRET, Example 7). The format is biochemical. To be noted: read-out: B: Enzymatic GRK2: IC50 (nM) (Example 7). The method in brief:
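GRK2 at 1 nM preincubated 30 min with compound, then reacted 90 min at room temperature with 7 μM ATP and 50 nM ULight-TopoIIα in HEPES/MgCl2/DTT buffer. Phosphorylation detected by TR-FRET after Eu anti-TopoIIα and EDTA addition, 60 min.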
On the technique in general: TR-FRET usually uses a lanthanide donor and a delayed reading to cut background.

Where [5] appears, read: 7.5 nM GRK2, 10 μM ATP, ADP-Glo, read-out: GRK2 IC50 (nM) (Example 8).
[6] abbreviates: Enzyme Assay B, TR-FRET (Example 7).
Where [7] appears, read: Enzyme Assay A, ADPGlo (Example 8), read-out: A: Enzymatic GRK2: IC50 (nM) (Example 8).
The mark [8] stands for this setting: ADPGlo GRK2 enzyme assay, read-out: A: Enzymatic GRK2: IC50 (nM) (Example 8).

With `Cn1c(CNc2cccc(C(=O)NCc3ccccc3C(F)(F)F)c2)nnc1-c1ccncc1` [115h, reference compound], the values for the GI50 in assay [1] and in assay [2] were 8.91 µM and 10 µM, respectively. Also, in assay [2], the “Ratio GRK2 overexpressing cells/Empty vector cells” value is 1.12.
In the case of `O=C(NCc1ccccc1C(F)(F)F)c1cccc(NCc2nnc3n2CCCOc2ccccc2-3)c1` [133a, reference compound], the GI50 (in general, the concentration that inhibits growth by half) in assay [1] amounted to 0.14 µM. In assay [2], the 50% growth inhibitory concentration (GI50) was 0.24 µM and the “Ratio GRK2 overexpressing cells/Empty vector cells” value is given as 1.71.
Take `CCCn1c(CNc2cccc(C(=O)NCc3ccccc3C(F)(F)F)c2)nnc1-c1ccncn1` [139c, reference compound]: the concentration for 50% growth inhibition (GI50) in assay [1] is 0.84 µM; in assay [2], 1.47 µM. Moreover, in assay [2], the “Ratio GRK2 overexpressing cells/Empty vector cells” value was found to be 1.75.
On to `Cn1c(CNc2cccc(C(=O)NCc3cc(F)cc(F)c3)c2)nnc1-c1ccncn1` [compound 10], for which, in assay [3] (setting [5]), the IC50 was 15 nM. For the same compound, the GI50 in assay [1] is 1.58 µM. In assay [2], the GI50 stood at 13.7 µM and the “Ratio GRK2 overexpressing cells/Empty vector cells” value is on record as 8.65.
On the same counts, the results for `CCc1cnccc1CNC(=O)c1cccc(NCc2nnc(-c3ccncn3)n2C)c1` [compound 12] are 51 nM, 0.97 µM, 8.01 µM and 8.24.
On the same counts, the results for `CCn1ncc(CNC(=O)c2cccc(NCc3nnc(-c4ccncn4)n3C)c2)c1F` [compound 15] are 18 nM, 4.01 µM, 17.7 µM and 4.42.
As to `Cc1cccnc1C(C)NC(=O)c1cccc(NCc2nnc(-c3ccncn3)n2C)c1` (stereo not shown) [compound 17], the IC50 in assay [3] (setting [5]) came to 10 nM. For the same compound, in assay [1], the concentration for 50% growth inhibition (GI50) was 2.11 µM. In addition, in assay [2], the GI50 amounted to 10.3 µM and the “Ratio GRK2 overexpressing cells/Empty vector cells” value was 4.89.
On the same counts, the results for `Cn1c(CNc2cccc(C(=O)NC3CCOc4c(Cl)cccc43)c2)nnc1-c1ccncn1` (stereo not shown) [compound 20] are 10 nM, 1.03 µM, 7.99 µM and 7.76.
As for `Cc1ccnc(C(C)NC(=O)c2cccc(NCc3nnc(-c4ccncn4)n3C)c2)c1` (stereo not shown) [compound 25], the GI50 in assay [1] was > 30 µM; in assay [2], 25.8 µM.
For `Cn1c(CNc2cccc(C(=O)N[C@H]3COc4ccccc43)c2)nnc1-c1ccncn1` [compound 26], the IC50 in assay [3] (setting [5]) was found to be 9.8 nM. The 50% growth inhibitory concentration (GI50) in assay [1] was found to be 0.68 µM; in assay [2], 4.18 µM. Also, the “Ratio GRK2 overexpressing cells/Empty vector cells” value in assay [2] is listed as 6.15.
On the same counts, the results for `C[C@@H](NC(=O)c1cccc(NCc2nnc(-c3ccncn3)n2C)c1)c1ncccc1Cl` [compound 29] are 12 nM, 1.24 µM, 5.01 µM and 4.04.
With `COc1cccnc1CNC(=O)c1cccc(NCc2nnc(-c3ccncc3)[nH]2)c1` [compound 33], the IC50 in assay [3] (setting [5]) was found to be 7.8 nM. Moreover, the GI50 in assay [1] turned out to be 1.33 µM. Also, in assay [2], the 50% growth inhibitory concentration (GI50) was found to be 17.7 µM and the “Ratio GRK2 overexpressing cells/Empty vector cells” value was 13.27.
For `Cn1cccc1CNC(=O)c1cccc(NCc2nnc(-c3ccncn3)n2C)c1` [drawing 585], the IC50 in assay [4] (setting [6]) came out at 6.7 nM; in assay [3] (setting [7]), 9.5 nM; in assay [1], 551 nM.
Regarding `Cc1cc2c(cc1CNC(=O)c1cccc(NCc3nnc(-c4ccncn4)n3C)c1)OCCO2` [drawing 588], the IC50 is 3.3 nM in assay [4] (setting [6]), 0.5 nM in assay [3] (setting [7]) and 996 nM in assay [1].
With `Cc1cccc(C(CO)NC(=O)c2cccc(NCc3nnc(-c4ccncn4)n3C)c2)c1` (stereo not shown) [drawing 589], the IC50 in assay [4] (setting [6]) was determined as 8.6 nM; in assay [3] (setting [7]), 1.1 nM; in assay [1], 407 nM.
On to `Cn1c(CNc2cccc(C(=O)NCc3cccc(C#N)c3)c2)nnc1-c1ccncn1` [drawing 591], for which the IC50 was 12 nM in assay [4] (setting [6]), 2.7 nM in assay [3] (setting [7]) and > 30000 nM in assay [1].
On the same counts, the results for `Cc1ccc2ncc(CNC(=O)c3cccc(NCc4nnc(-c5ccncn5)n4C)c3)n2c1` [drawing 596] are 7.2 nM, 2.8 nM and > 30000 nM.
`CC(NC(=O)c1cccc(NCc2nnc(-c3ccncn3)n2C)c1)c1c[nH]cn1` (stereo not shown) [drawing 599]: the IC50 was 60 nM in assay [4] (setting [6]), 5.7 nM in assay [3] (setting [7]) and > 30000 nM in assay [1].
On the same counts, the results for `Cn1c(CNc2cccc(C(=O)NCc3ccc(-n4nccn4)cc3)c2)nnc1-c1ccncn1` [drawing 601] are 20 nM, 2.1 nM and > 30000 nM.
On the same counts, the results for `Cn1c(CNc2cccc(C(=O)NCc3ccc(C#N)cc3)c2)nnc1-c1ccncn1` [drawing 603] are 20 nM, 6.3 nM and > 30000 nM.
In the case of `Cn1nccc1CNC(=O)c1cccc(NCc2nnc(-c3ccncn3)n2C)c1` [drawing 608], the IC50 is 29 nM in assay [4] (setting [6]), 5.7 nM in assay [3] (setting [7]) and > 30000 nM in assay [1].
On the same counts, the results for `Cc1nc(CNC(=O)c2cccc(NCc3nnc(-c4ccncn4)n3C)c2)cs1` [drawing 610] are 13 nM, 9.8 nM and > 30000 nM.
Turning to `Cn1c(CNc2cccc(C(=O)NCc3ccc4nccn4c3)c2)nnc1-c1ccncn1` [drawing 611], the IC50 was 26 nM in assay [4] (setting [6]), 1.7 nM in assay [3] (setting [7]) and 2930 nM in assay [1].
On the same counts, the results for `Cn1c(CNc2cccc(C(=O)NCc3cnn(-c4ccccc4)n3)c2)nnc1-c1ccncn1` [drawing 616] are 18 nM, 6.5 nM and > 30000 nM.
On the same counts, the results for `CCS(=O)(=O)c1ccc(CNC(=O)c2cccc(NCc3nnc(-c4ccncn4)n3C)c2)cc1` [drawing 618] are 21 nM, 6.2 nM and > 30000 nM.
`Cc1ccn2c(CNC(=O)c3cccc(NCc4nnc(-c5ccncn5)n4C)c3)cnc2c1` [drawing 620]: the IC50 in assay [4] (setting [6]) came to 20 nM; in assay [3] (setting [7]), 3 nM; in assay [1], 5600 nM.
For `C[C@@H](NC(=O)c1cccc(NCc2nnc(-c3ccncn3)n2C)c1)c1ncccc1Cl` [drawing 845], the IC50 in assay [4] (TR-FRET GRK2 enzyme assay) worked out at 15 nM; in assay [3] (setting [8]), 12 nM; in assay [1] it was 27100 nM.
On the same counts, the results for `Cn1c(CNc2cccc(C(=O)N[C@@H]3COCc4ccccc43)c2)nnc1-c1ccncn1` [drawing 851] are 11.9 nM, 20.2 nM and > 800 nM.
